Assay results reported in article PMC10178166, “NanoLuc Luciferase as a Fluorogen-Activating Protein for GFP Chromophore Based Fluorogens” (International Journal of Molecular Sciences, 2023).
Where two headings read alike, the source gives them in different places.

Target: T1, NanoLuc (Oplophorus gracilirostris, UniProt Q9GV45, A31E/A60N/A81I/F95D/I117V/K70R/L54V/L99Q/M102K/N193R/P142E/Q151K/Q38R/Q45L/V71I/Y165I)
T1 construct: Engineered 19 kDa subunit variant (NanoLuc, about 171 residues, no signal peptide)
Assay: spectrofluorometric titration
Type: binding
Excerpt: spectrofluorometric titration on NanoLuc

T1 sequence (Q9GV45 28-196 with the stated changes): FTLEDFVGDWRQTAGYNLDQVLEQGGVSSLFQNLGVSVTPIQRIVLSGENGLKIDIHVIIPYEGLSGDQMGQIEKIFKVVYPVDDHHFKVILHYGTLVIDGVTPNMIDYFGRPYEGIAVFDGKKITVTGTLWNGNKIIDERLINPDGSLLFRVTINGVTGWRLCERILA

O=C1/C(=C/c2ccc[nH]2)N=C(/C=C/c2ccccc2)N1Cc1ccccc1 (mixture of isomers) [4bc]
Kd (read-out: [drawing 2] / [drawing 5] / 4bc): 590 ± 40 nM

O=C1/C(=C/c2ccc[nH]2)N=C(/C=C/c2cccs2)N1Cc1ccccc1 (mixture of isomers) [4bh]
Kd (read-out: [drawing 2] / [drawing 4] / 4bh): 320 ± 20 nM

O=C1/C(=C/c2ccc[nH]2)N=C(/C=C/c2ccccc2)N1CCc1ccc(O)cc1 (mixture of isomers) [4cc]
Kd (read-out: [drawing 3] / [drawing 7] / 4cc): 550 ± 40 nM
